# Results reported in patent US20100144675A1, “Regulation of sGC Function by Corrin Derivatives” (priority 2007, published 2010).
# How the values were obtained:
# [1] = target: T1, recombinant human α1/β1 sGC (Homo sapiens, UniProt Q02108+Q02153); assay: cGMP production by purified recombinant sGC (activation by tetrapyrroles); assay type: biochemical; conditions: for shift of EC50 of sGC activation in the combination: FIG. 4D/4E; for concentration at which sGC activation is maximal (dose response): dose response of corrins, FIG. 4C
# T1 construct: made in house
# T1 sequence (Q02108 1-690): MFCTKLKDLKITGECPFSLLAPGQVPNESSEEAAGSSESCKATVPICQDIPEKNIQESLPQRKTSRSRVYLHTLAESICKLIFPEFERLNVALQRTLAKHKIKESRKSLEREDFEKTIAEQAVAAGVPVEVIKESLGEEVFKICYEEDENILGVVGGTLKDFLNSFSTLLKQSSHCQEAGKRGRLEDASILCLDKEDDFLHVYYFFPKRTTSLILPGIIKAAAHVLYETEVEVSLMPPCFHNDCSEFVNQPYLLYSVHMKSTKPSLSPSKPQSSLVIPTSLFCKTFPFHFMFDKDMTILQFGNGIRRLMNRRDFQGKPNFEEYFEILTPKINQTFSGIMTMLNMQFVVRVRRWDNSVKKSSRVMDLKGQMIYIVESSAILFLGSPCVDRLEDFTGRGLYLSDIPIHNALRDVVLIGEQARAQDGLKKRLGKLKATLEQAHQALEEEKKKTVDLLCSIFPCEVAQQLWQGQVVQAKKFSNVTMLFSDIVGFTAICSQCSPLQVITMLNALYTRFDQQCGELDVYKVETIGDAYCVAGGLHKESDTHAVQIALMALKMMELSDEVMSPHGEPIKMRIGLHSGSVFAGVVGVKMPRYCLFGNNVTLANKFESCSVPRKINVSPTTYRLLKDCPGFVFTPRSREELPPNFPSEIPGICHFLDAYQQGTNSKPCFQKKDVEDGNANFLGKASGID
# T1 sequence (Q02153 1-619): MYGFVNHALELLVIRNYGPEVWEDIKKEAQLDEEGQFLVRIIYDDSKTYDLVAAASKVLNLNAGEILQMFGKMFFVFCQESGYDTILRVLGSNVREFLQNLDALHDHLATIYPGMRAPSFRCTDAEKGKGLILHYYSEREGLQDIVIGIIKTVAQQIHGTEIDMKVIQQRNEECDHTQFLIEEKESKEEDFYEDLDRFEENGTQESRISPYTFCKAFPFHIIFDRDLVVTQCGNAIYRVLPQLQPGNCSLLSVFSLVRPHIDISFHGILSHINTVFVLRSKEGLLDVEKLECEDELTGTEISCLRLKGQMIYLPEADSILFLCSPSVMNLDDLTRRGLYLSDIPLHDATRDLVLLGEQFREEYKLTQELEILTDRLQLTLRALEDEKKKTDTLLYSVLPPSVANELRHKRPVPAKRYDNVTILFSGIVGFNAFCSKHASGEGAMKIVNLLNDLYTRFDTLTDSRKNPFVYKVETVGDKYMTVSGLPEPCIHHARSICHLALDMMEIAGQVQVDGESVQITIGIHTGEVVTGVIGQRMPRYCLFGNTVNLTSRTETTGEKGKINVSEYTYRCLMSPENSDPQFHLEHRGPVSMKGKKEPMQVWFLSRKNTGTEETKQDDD
# Experimental: FIG. 4. Effect of tetrapyrroles on sGC activity in vitro. A. cGMP production by recombinant human α1/β1 sGC induced by 50 μM factor B, bilirubin, nitrite ionophore 1, uroporphyrin I, or protoporphyrin IX. B. cGMP production by recombinant human α1/β1 sGC induced by 50 μM factor B, bilirubin, nitrite ionophore 1, uroporphyrin I, or protoporphyrin IX alone or in the presence of 1 μM BAY41-2272 or HMR1766. C. cGMP production by recombinant al (31 sGC in response to increasing concentration of protoporphyrin, factor B, vitamin B12 and vitamin B12a. D. cGMP production by recombinant human al/131 sGC induced by various doses of factor B at various doses of BAY41-2272. E. cGMP production by recombinant human α1/β1 sGC induced by various doses of factor B at various doses of BAY41-2272.
# Activation of purified sGC by various tetrapyrroles. […] Methods of recombinant expression and purification of human α1/β11 isoform of sGC have been developed^23, 24. Measurements of enzymatic activity and multiple spectral studies performed using this recombinant enzyme^10, 23, 25 indicate that these recombinant preparations have identical properties as the native enzyme. We tested a series of tetrapyrrole compounds (FIG. 3), which are structurally related to PPIX. Similar to PPIX, majority of the tested tetrapyrroles contain four pyrrole rings connected to form a microcycle. In the case of billirubin, however, the microcycle is interrupted. […] We then compared fB with vitamin B12 (cyanocobalamine) or its derivative B12a (aquacobalamine) and PPIX, all at 50 μM. […] HMR1766 was kindly provided by Sanofi-Avantis (see a letter attached).
# [2] = test system: rat aortic rings; assay: Relaxation of phenylephrine-preconstricted isolated rat aortic rings; assay type: cell-based, Sprague Dawley rats; conditions: for vascular relaxation of preconstricted aortic rings: 1 μM phenylephrine preconstriction, cumulative addition
# Experimental: FIG. 5. Synergistic effect of corrin derivatives and BAY41-2272 on relaxation of rat aortic rings. The measurements were performed in the presence of corrin derivatives±BAY41-2272 as described in the text. Data are average of two aortic rings per each dose-response curve. Arrow indicates the shift in the effective dose and increased response.
# FB-dependent relaxation of isolated rat aorta. In addition to in vitro analysis of sGC activity, we tested whether fB and vitamin B12 derivatives will induce relaxation of preconstricted rat aortic rings. The descending thoracic aorta was excised from freshly sacrificed Sprague Dawley rats, cleaned of adherent tissue and cut into 3-4 mm rings. Each ring was suspended between two wires hooks and mounted under 1 mN of passive tension in 4 ml organ chambers filled with Krebs' solution at 37° C., pH 7.4 and continuously aerated with 95% O2/5% CO2. The changes in isometric tension were measured by a force transducer (Grass Instruments, USA) connected to a PowerLab 400™ data-acquisition system (ADInstruments, Colorado Springs, Mass., USA). Ring preparations were equilibrated for 1 h before the start of the experiments. After the equilibration period, rings were preconstricted with 1 μM phenylephrine and maximal contractile response is determined. After maximal constriction the agonists (vitamin B12, methyl-B12, fB, BAY41-2272) were added cumulatively and changes in isometric tension determined. […] In the presence of a low dose of BAY41-2272 (0.1 μM) EC50 of fB decreased while the response increased.
# [3] = test system: anesthetized rats; assay: Blood pressure (MAP) and cardiac output in instrumented anesthetized rats; assay type: in vivo, Sprague Dawley rats; conditions: for change in blood pressure after bolus: 500 μl bolus into abdominal aorta, fB at 5 and 15 mg/ml or 100 μg/kg BAY41-2272; for change in cardiac output after bolus: 500 μl bolus, data not shown
# Experimental: FIG. 6. Effect of factor B and BAY41-2272 on mean arterial pressure (MAP) in instrumented anesthetized rats. Indicated amount of drugs were delivered as a 500 μl bolus through a catheter into the abdominal aorta and MAP were recorded as described in section D1.2. “Contr”—500 μl of saline,
# Effect of factor B and BAY41-2272 on blood pressure of anesthetized rats. We also measured the effect of bolus application of fB on changes in hemodynamic parameters in anesthetized rats. Sprague Dawley rats were surgically implanted with a 10-MHz pulsed Doppler flow and a displacement probe around the ascending aorta and sutured to the left ventricular wall, respectively. A Tygon catheter was placed into the abdominal aorta via the femoral artery. After recovery the animals were anesthetized with halothane, intubated, and ventilated under isothermic conditions. Changes in systolic, diastolic, mean arterial pressures and cardiac output were recorded and processed with a multichannel-pulsed Doppler flow/dimension system and digitized (A/D converter). Before experimental treatments with fB and/or BAY41-2272 the animals were treated with a bolus of 30 μg/kg of sodium nitroprusside to confirm the integrity of the catheter and delivery system and the responsiveness of animals to drugs. After the baseline was established a 500 μl bolus of fB at 5 and 15 mg/ml or 100 μg/kg of BAY41-2272 (Alexis, San Diego, Calif., USA) was delivered and the changes in blood pressure (FIG. 6A). and cardiac output were recorded (data not shown).
# [4] = test system: rat aortic rings; assay: cGMP levels in treated rat aortic rings; assay type: cell-based; conditions: 5 minutes incubation, 37° C., in combination with BAY 41-2272
# Experimental: FIG. 7. Changes in cGMP levels in rat aortic rings. Aortic rings were incubated with saline or saline with factor B in the presence or absence of BAY 41-2272 for 5 minutes at 37° C. cGMP was extracted and quantified.
# Changes in cGMP levels in isolated rat aorta treated with factor B and BAY 41-2272. In order to confirm that relaxation of blood vessels and decreased blood pressure in response to factor B is dependent on sGC activity we measured cGMP levels in treated aortic rings.
# [5] = test system: sGC; conditions: cited from earlier work
# [6] = combination of BAY41-2272 and fB
# [7] = in the presence of 0.1 μM BAY41-2272
# [8] = fB together with 100 μg/kg BAY41-2272, FIG. 6B
molecule,measurement,setting,value
"C/C1=C2/[N-]C([C@H](CC(N)=O)[C@@]2(C)CCC(=O)NCC(C)O)[C@]2(C)N=C(/C(C)=C3N=C(/C=C4N=C1[C@@H](CCC(N)=O)C\4(C)C)[C@@H](CCC(N)=O)[C@]\3(C)CC(N)=O)[C@@H](CCC(N)=O)[C@]2(C)CC(N)=O.[C-]#N.[C-]#N.[Co] (some centres unmarked) [factor B, dicyanocobinamide]","sGC activation in combination with HMR1766, FIG. 4B",[1]; 50 μM with 1 μM HMR1766,even more effective than PPIX/HMR1766
same,"sGC activation compared with vitamin B12, B12a and PPIX, FIG. 4B",[1]; all at 50 μM,effective activator of sGC
same,sGC activation by the combination (synergy),[1]; [6],synergistically enhanced the enzyme
same,shift of EC50 of sGC activation in the combination,[1]; [6],shifted the EC50 to lower concentrations
same,concentration at which sGC activation is maximal (dose response),[1],did not reach maximum in the tested range of concentrations
same,"sGC activation (cGMP production), FIG. 4A",[1]; tetrapyrrole alone at 50 μM,significantly activated sGC
same,vascular relaxation of preconstricted aortic rings,[2],can induce vascular relaxation
same,EC50 of aortic ring relaxation,[2]; [7],decreased
same,relaxation response,[2]; [7],increased
same,change in blood pressure after bolus,[3],Transient decreased in blood pressure
same,change in cardiac output after bolus,[3],increased cardiac output
same,"baseline to which MAP was restored, versus BAY41-2272 alone","[3]; combined fB/BAY41-2272 treatment, FIG. 6B",even lower and more prolonged
same,amplitude of drop in blood pressure,[3]; [8],enhanced the amplitude of BAY41-2272-induced drop in blood pressure
same,time of acutely decreased blood pressure,[3]; [8],significantly prolonged
same,levels of cGMP in aortic rings,[4],increased
"Nc1nc(-c2nn(Cc3ccccc3F)c3ncccc23)nc(N)c1N1CCOCC1 [BAY41-2272, reference compound]",shift of EC50 of sGC activation in the combination,[1]; [6],shifted the EC50 to lower concentrations
same,MAP after administration,[3]; 100 μg/kg BAY41-2272 alone,stabilize their MAP at lower values
same,time lower MAP is maintained,[3]; 100 μg/kg BAY41-2272 alone,at least 30 minutes
same,change in blood pressure after bolus,[3],Transient decreased in blood pressure
same,change in cardiac output after bolus,[3],increased cardiac output
"[N]=O [NO, nitric oxide]",increase in rate of cGMP production,[5]; high-output state,> 100 fold
"C/C1=C2/[N-][C@H]([C@H](CC(N)=O)[C@@]2(C)CCC(=O)NC[C@@H](C)OP(=O)([O-])OC2C(O)[C@@H](n3cnc4cc(C)c(C)cc43)O[C@H]2CO)[C@]2(C)N=C(/C(C)=C3N=C(/C=C4N=C1[C@@H](CCC(N)=O)C\4(C)C)[C@@H](CCC(N)=O)[C@]\3(C)CC(N)=O)[C@@H](CCC(N)=O)[C@]2(C)CC(N)=O.O.[Co+2] (some centres unmarked) [vitamin B12a, aquacobalamine, reference compound]",concentration at which sGC activation is maximal (dose response),[1],50 µM
"cyanocobalamin [vitamin B12, reference compound]",concentration at which sGC activation is maximal (dose response),[1],50 µM
same,vascular relaxation of preconstricted aortic rings,[2],can induce vascular relaxation
"[C-]#[O+] [CO, carbon monoxide]",cGMP produced compared to the resting enzyme,[5]; low-output state,3-4 time
"C/C1=C2/[N-][C@H]([C@H](CC(N)=O)[C@@]2(C)CCC(=O)NC[C@H](C)OP(=O)([O-])O[C@H]2[C@@H](O)[C@@H](n3cnc4cc(C)c(C)cc43)O[C@@H]2CO)[C@]2(C)N=C(/C(C)=C3N=C(/C=C4N=C1[C@@H](CCC(N)=O)C\4(C)C)[C@@H](CCC(N)=O)[C@]\3(C)CC(N)=O)[C@@H](CCC(N)=O)[C@]2(C)CC(N)=O.[CH3-].[Co+3] [methyl-B12, methylcobalamin, reference compound]",vascular relaxation of preconstricted aortic rings,[2],can induce vascular relaxation
